Data from ChEMBL document CHEMBL5038615, “Discovery of a cinnamyl piperidine derivative as new neddylation inhibitor for gastric cancer treatment” (Eur J Med Chem, 2021).
Active and inactive are the calls of the source. The rule behind the calls is not given here.

Columns and labels:
MGC-803 [1] = assay: Cell cycle arrest in human MGC-803 cells assessed as accumulation of cells at G0/G1 phase at 7.5 uM measured after 24 hrs by Flowcytometry assay (reference value: 46.01%); assay type: functional
HGC-27 [2] = assay: Antiproliferative activity against human HGC-27 cells assessed as inhibition of cell proliferation at 0.39 to 50 uM measured upto 72 hrs by MTT assay; assay type: functional, cell-based; settings: dose 0.39-50 µM, time hrs <=72
MGC-803 [3] = assay: Induction of apoptosis in human MGC-803 cells assessed as late apoptotic cells at 2.5 uM measured after 48 hrs by AnnexinV/FITC staining based flow cytometry method (reference value: 0.9%); assay type: functional
MGC-803 [4] = assay: Antiproliferative activity against human MGC-803 cells assessed as cell survival at 7.5 uM pre-incubated with Z-VAD-FMK followed by compound addition and measured after 24 hrs by MTT assay; assay type: functional, cell-based
MGC-803 [5] = assay: Induction of apoptosis in human MGC-803 cells assessed as late apoptotic cells at 5 uM measured after 24 hrs by AnnexinV/FITC staining based flow cytometry method (reference value: 2%); assay type: functional
MGC-803 [6] = assay: Induction of apoptosis in human MGC-803 cells assessed as viable cells at 7.5 uM measured after 48 hrs by AnnexinV/FITC staining based flow cytometry method (reference value: 97.4%); assay type: functional; settings: read-out: Activity
HGC-27 [7] = assay: Induction of apoptosis in human HGC-27 cells assessed as necrotic cells at 3 uM measured after 24 hrs by AnnexinV/FITC staining based flow cytometry method (reference value: 1.2%); assay type: functional
MGC-803 [8] = assay: Inhibition of cell migration in human MGC-803 cells at 1.25 to 5 uM measured after 24 to 48 hrs by wound healing assay based inverted microscopic analysis; assay type: functional; settings: dose 1.25-5 µM, time 24-48 hrs
MGC-803 [9] = assay: Cell cycle arrest in human MGC-803 cells assessed as accumulation of cells at G0/G1 phase at 2.5 uM measured after 24 hrs by Flowcytometry assay (reference value: 46.01%); assay type: functional
HGC-27 [10] = assay: Induction of apoptosis in human HGC-27cells assessed as reduction of mitochondrial membrane potential at 6 uM measured after 24 hrs by JC-1 staining based Flowcytometry assay (reference value: 2.4%); assay type: functional; set-up: scale not given: the % may be the effect or the level left
MGC-803 [11] = assay: Induction of apoptosis in human MGC-803 cells assessed as necrotic cells at 2.5 uM measured after 24 hrs by AnnexinV/FITC staining based flow cytometry method (reference value: 1.9%); assay type: functional
[12] = target: T1, NEDD8-activating enzyme E1 regulatory subunit (Homo sapiens) (UniProt Q13564); assay: Inhibition of NAE-mediated neddylation in human MGC-803 cells assessed as cullin1-Nedd8 adduct formation at 2.5 to 7.5 uM measured after 24 hrs by western blot assay; assay type: cell-based; settings: dose 2.5-7.5 µM
T1 sequence (whole entry): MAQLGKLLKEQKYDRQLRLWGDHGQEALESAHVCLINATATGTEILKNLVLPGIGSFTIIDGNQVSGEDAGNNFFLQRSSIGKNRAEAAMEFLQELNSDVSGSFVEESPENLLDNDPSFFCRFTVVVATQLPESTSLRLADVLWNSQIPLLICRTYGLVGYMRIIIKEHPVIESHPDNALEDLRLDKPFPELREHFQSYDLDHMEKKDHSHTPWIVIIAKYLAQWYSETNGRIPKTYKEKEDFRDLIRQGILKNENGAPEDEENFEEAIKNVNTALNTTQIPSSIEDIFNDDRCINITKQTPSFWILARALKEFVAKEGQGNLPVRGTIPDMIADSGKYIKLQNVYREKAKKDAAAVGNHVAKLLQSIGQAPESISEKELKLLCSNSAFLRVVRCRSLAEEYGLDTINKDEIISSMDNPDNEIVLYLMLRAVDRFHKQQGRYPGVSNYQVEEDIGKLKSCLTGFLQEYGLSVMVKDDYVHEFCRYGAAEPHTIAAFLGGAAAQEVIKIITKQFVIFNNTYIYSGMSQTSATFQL

HGC-27 [13] = assay: Induction of apoptosis in human HGC-27 cells assessed as viable cells at 3 uM measured after 48 hrs by AnnexinV/FITC staining based flow cytometry method (reference value: 93.18%); assay type: functional; settings: read-out: Activity
HGC-27 [14] = assay: Induction of apoptosis in human HGC-27 cells assessed as viable cells at 3 uM measured after 24 hrs by AnnexinV/FITC staining based flow cytometry method (reference value: 95.7%); assay type: functional; settings: read-out: Activity
HGC-27 [15] = assay: Induction of apoptosis in human HGC-27 cells assessed as late apoptotic cells at 6 uM measured after 24 hrs by AnnexinV/FITC staining based flow cytometry method (reference value: 2.4%); assay type: functional
HGC-27 [16] = assay: Induction of apoptosis in human HGC-27 cells assessed as viable cells at 9 uM measured after 24 hrs by AnnexinV/FITC staining based flow cytometry method (reference value: 95.7%); assay type: functional; settings: read-out: Activity
HGC-27 [17] = assay: Induction of apoptosis in human HGC-27 cells assessed as downregulation of Bcl-2 at 3 to 9 uM measured after 24 hrs by Western blot assay; assay type: functional, cell-based; settings: dose 3-9 µM
MGC-803 [18] = assay: Induction of apoptosis in human MGC-803 cells assessed as early apoptotic cells at 7.5 uM measured after 24 hrs by AnnexinV/FITC staining based flow cytometry method (reference value: 1.3%); assay type: functional

CCCCCc1ccc(NC(=O)C2CCN(C/C=C/c3ccccc3)CC2)cc1
Activity (MGC-803 [1]): 37.06% | Activity (HGC-27 [2]): Dose-Dependent Effect | Activity (MGC-803 [3]): 43.5% | Activity (MGC-803 [4]): Active | Activity (MGC-803 [5]): 10.9% | viability at 7.5 µM (MGC-803 [6]): 0.4% | Activity (HGC-27 [7]): 0.4% | Activity (MGC-803 [8]): Dose-Dependent Effect | Activity (MGC-803 [9]): 48.87% | Activity (HGC-27 [10]): 45.3% | Activity (MGC-803 [11]): 0.8% | inhibition [12]: Active | viability at 3 µM (HGC-27 [13]): 64.4% | viability at 3 µM (HGC-27 [14]): 87.5% | Activity (HGC-27 [15]): 51.3% | viability at 9 µM (HGC-27 [16]): 20.9% | Activity (HGC-27 [17]): Dose-Dependent Effect | Activity (MGC-803 [18]): 1.7%
